Patent US7507743B2, “Substituted 8′-pyridinyl-dihydrospiro-[cycloalkyl]-pyrimido[1,2-a] pyrimidin-6-one and 8′-pyrimidinyl-dihydrospiro-[cycloalkyl]-pyrimido[1,2-a] pyrimidin-6-one derivatives” (Sanofi-Aventis, priority 2003, dated 2009)
Counter-ions that a name gives are not always drawn.

| melting point [°C] | Structure (SMILES) |
| --- | --- |
| 242 to 244 | O=C(CN1c2nc(-c3ccncc3)cc(=O)n2CCC12CCC2)c1ccccc1 (as salt: hydrochloride) [compound 9, 1′-(2-Oxo-2-phenylethyl)-8′-pyridin-4-yl-3′,4′-dihydrospiro[cyclobutane-1,2′-pyrimido[1,2-a]pyrimidin]-6′(1′H)-one] |
| 214 to 216 | O=c1cc(-c2ccncc2)nc2n1CCC1(CCC1)N2C[C@@H](O)c1ccccc1 (as salt: hydrochloride) [compound 8, 1′-[(2S)-2-Hydroxy-2-phenylethyl]-8′-pyridin-4-yl-3′,4′-dihydrospiro-[cyclobutane-1,2′-pyrimido[1,2-a]pyrimidin]-6′(1′H)-one] |
| 157 to 158 | O=c1cc(-c2ccncn2)nc2n1CCC1(CCCC1)N2C[C@@H](O)c1ccccc1 [compound 4, 1′-[(2S)-2-Hydroxy-2-phenylethyl]-8′-pyrimidin-4-yl-3′,4′-dihydrospiro-[cyclopentane-1,2′-pyrimido[1,2-a]pyrimidin]-6′(1′H)-one] |
| 221 to 222 | O=c1cc(-c2ccncc2)nc2n1CCC1(CCCC1)N2C[C@H](O)c1ccccc1 (as salt: hydrochloride) [compound 15, 1′-[(2R)-2-Hydroxy-2-phenylethyl]-8′-pyridin-4-yl-3′,4′-dihydrospiro-[cyclopentane-1,2′-pyrimido[1,2-a]pyrimidin]-6′(1′H)-one] |
| 182 to 184 | O=c1cc(-c2ccncn2)nc2n1CCC1(CCC1)N2C[C@H](O)c1ccccc1 [compound 12, 1′-[(2R)-2-Hydroxy-2-phenylethyl]-8′-pyrimidin-4-yl-3′,4′-dihydrospiro-[cyclobutane-1,2′-pyrimido[1,2-a]pyrimidin]-6′(1′H)-one] |
| 208 to 210 | O=c1cc(-c2ccncc2)nc2n1CCC1(CCCC1)N2CCc1ccccc1 (as salt: hydrochloride) [compound 20, 1′-(phenylethyl)-8′-pyridin-4-yl-3′,4′-dihydrospiro-[cyclopentane-1,2′-pyrimido[1,2-a]pyrimidin]-6′(1′H)-one] |
| 218 to 220 | O=c1cc(-c2ccncc2)nc2n1CCC1(CCC1)N2C[C@H](O)c1ccccc1 (as salt: hydrochloride) [compound 13, 1′-[(2R)-2-Hydroxy-2-phenylethyl]-8′-pyridin-4-yl-3′,4′-dihydrospiro-[cyclobutane-1,2′-pyrimido[1,2-a]pyrimidin]-6′(1′H)-one] |
| 227 to 228 | O=c1cc(-c2ccncc2)nc2n1CCC1(CCCC1)N2Cc1ccccc1 (as salt: hydrochloride) [compound 19, 1′-(phenylmethyl)-8′-pyridin-4-yl-3′,4′-dihydrospiro-[cyclopentane-1,2′-pyrimido[1,2-a]pyrimidin]-6′(1′H)-one] |
| 221 to 223 | O=c1cc(-c2ccncc2)nc2n1CCC1(CCCC1)N2C[C@@H](O)c1ccccc1 (as salt: hydrochloride) [compound 3, 1′-[(2S)-2-Hydroxy-2-phenylethyl]-8′-pyridin-4-yl-3′,4′-dihydrospiro-[cyclopentane-1,2′-pyrimido[1,2-a]pyrimidin]-6′(1′H)-one] |
| 155 to 156 | O=c1cc(-c2ccncn2)nc2n1CCC1(CCCC1)N2C[C@H](O)c1ccccc1 [compound 5, 1′-[(2R)-2-Hydroxy-2-phenylethyl]-8′-pyrimidin-4-yl-3′,4′-dihydrospiro-[cyclopentane-1,2′-pyrimido[1,2-a]pyrimidin]-6′(1′H)-one] |
| 224 to 225 | O=c1cc(-c2ccncc2)nc2n1CCC1(CC1)N2CCc1ccccc1 (as salt: hydrochloride) [compound 22, 1′-(phenylethyl)-8′-pyridin-4-yl-3′,4′-dihydrospiro-[cyclopropane-1,2′-pyrimido[1,2-a]pyrimidin]-6′(1′H)-one] |
| 116 to 167 | O=c1cc(-c2ccncn2)nc2n1CCC1(CCC1)N2CCc1ccccc1 [compound 23, 1′-(phenylethyl)-8′-pyrimidin-4-yl-3′,4′-dihydrospiro-[cyclobutane-1,2′-pyrimido[1,2-a]pyrimidin]-6′(1′H)-one] |
| 213 to 215 | O=c1cc(-c2ccncc2)nc2n1CCC1(CCC1)N2Cc1ccccc1 (as salt: hydrochloride) [compound 18, 1′-(phenylmethyl)-8′-pyridin-4-yl-3′,4′-dihydrospiro-[cyclobutane-1,2′-pyrimido[1,2-a]pyrimidin]-6′(1′H)-one] |
| 149 to 150 | O=c1cc(-c2ccncn2)nc2n1CCC1(CCC1)N2Cc1ccccc1 [compound 14, 1′-(phenylmethyl)-8′-pyrimidin-4-yl-3′,4′-dihydrospiro-[cyclobutane-1,2′-pyrimido[1,2-a]pyrimidin]-6′(1′H)-one] |
| 191 to 193 | O=c1cc(-c2ccncn2)nc2n1CCC1(CCCC1)N2Cc1ccccc1 [compound 16, 1′-(phenylmethyl)-8′-pyrimidin-4-yl-3′,4′-dihydrospiro-[cyclopentane-1,2′-pyrimido[1,2-a]pyrimidin]-6′(1′H)-one] |
| 233 to 235 | O=c1cc(-c2ccncc2)nc2n1CCC1(CC1)N2Cc1ccccc1 (as salt: hydrochloride) [compound 17, 1′-(phenylmethyl)-8′-pyridin-4-yl-3′,4′-dihydrospiro-[cyclopropane-1,2′-pyrimido[1,2-a]pyrimidin]-6′(1′H)-one] |
| 161 to 162 | O=C(CN1c2nc(-c3ccncc3)cc(=O)n2CCC12CCCC2)c1ccccc1 (as salt: hydrochloride) [compound 7, 1′-(2-Oxo-2-phenylethyl)-8′-pyridin-4-yl-3′,4′-dihydrospiro[cyclopentane-1,2′-pyrimido[1,2-a]pyrimidin]-6′(1′H)-one] |
| 190 to 191 | O=c1cc(-c2ccncn2)nc2n1CCC1(CCCC1)N2CCc1ccccc1 [compound 24, 1′-(phenylethyl)-8′-pyrimidin-4-yl-3′,4′-dihydrospiro-[cyclopentane-1,2′-pyrimido[1,2-a]pyrimidin]-6′(1′H)-one] |
| 232 to 234 | O=C(CN1c2nc(-c3ccncc3)cc(=O)n2CCC12CC2)c1ccccc1 (as salt: hydrochloride) [compound 2, 1′-(2-Oxo-2-phenylethyl)-8′-pyridin-4-yl-3′,4′-dihydrospiro[cyclopropane-1,2′-pyrimido[1,2-a]pyrimidin]-6′(1′H)-one] |
| 186 to 187 | O=c1cc(-c2ccncn2)nc2n1CCC1(CCC1)N2C[C@@H](O)c1ccccc1 [compound 11, 1′-[(2S)-2-Hydroxy-2-phenylethyl]-8′-pyrimidin-4-yl-3′,4′-dihydrospiro-[cyclobutane-1,2′-pyrimido[1,2-a]pyrimidin]-6′(1′H)-one] |
| 219 to 221 | O=c1cc(-c2ccncc2)nc2n1CCC1(CC1)N2C[C@@H](O)c1ccccc1 (as salt: hydrochloride) [compound No. 1, 1′-[(2S)-2-Hydroxy-2-phenylethyl]-8′-pyridin-4-yl-3′,4′-dihydrospiro[cyclopropane-1,2′-pyrimido[1,2-a]pyrimidin]-6′(1′H)-one] |
| 194 to 196 | O=C(CN1c2nc(-c3ccncn3)cc(=O)n2CCC12CCCC2)c1ccccc1 [compound 6, 1′-[2-Oxo-2-phenylethyl]-8′-pyrimidin-4-yl-3′,4′-dihydrospiro-[cyclopentane-1,2′-pyrimido[1,2-a]pyrimidin]-6′(1′H)-one] |
| 207 to 208 | O=C(CN1c2nc(-c3ccncn3)cc(=O)n2CCC12CCC2)c1ccccc1 [compound No. 10, 1′-(2-Oxo-2-phenylethyl)-8′-pyrimidin-4-yl-3′,4′-dihydrospiro[cyclobutane-1,2′-pyrimido[1,2-a]pyrimidine]-6′(1′H)-one] |
| 210 to 211 | O=c1cc(-c2ccncc2)nc2n1CCC1(CCC1)N2CCc1ccccc1 (as salt: hydrochloride) [compound 21, 1′-(phenylethyl)-8′-pyridin-4-yl-3′,4′-dihydrospiro-[cyclobutane-1,2′-pyrimido[1,2-a]pyrimidin]-6′(1′H)-one] |
